From US6489469B1, “Method for storing or transporting erythritol solution” (Nikken Chemicals Co., Ltd., priority 1999, dated 2002)

How the values were obtained:
[1] = tested on: Candida albicans IFO 1549; test: Viable Count of Candida albicans IFO 1549 in Erythritol Solution; assay type: cell-based
Procedure: (§1) Erythritol solutions of respective concentrations in the range of from 30 to 60% were prepared. To these were inoculated Staphylococcus aureus IFO 13276, Bacillus subtilis IFO 3134, and Escherichia coli IFO 3972 as bacteria, Candida albicans IFO 1549 and Saccharomyces cerevisiae ATCC 9763 as yeasts, Aspergillus niger IFO 6342, Aspergillus flavus IFO 6343, and Penicillium funiculosum IFO 6345 as fungi, respectively, in a population (concentration) of 10,000 cells/mL or more. After the inoculation, the solutions were stored at 30, 37, 45, 50, or 60° C., respectively, for 56 days and the number of viable cell was determined daily. The determination of the number of viable cell was performed by a method of coating 0.1 mL of appropriately diluted sample cultivation on an agar plate and cultivating and counting the number of viable cell (the number of colony) that grew after the cultivation.

[2] = tested on: Escherichia coli IFO 3972; test: Viable Count of Escherichia coli IFO 3972 in Erythritol Solution; assay type: cell-based; conditions: 30° C., 30% w/w
Procedure: as §1

OC[C@@H](O)[C@@H](O)CO [Erythritol Solution, erythritol]
7780 cells/mL: The Number of Viable Cell ([2]; Day 14)
110 cells/mL: The Number of Viable Cell ([2]; Day 28)
10000 or more cells/mL: The Number of Viable Cell ([2]; Day 0) | The Number of Viable Cell ([2]; Day 3) | The Number of Viable Cell ([2]; Day 7)
3 days: time after which microbes died ([1]; temperature of 50° C. or more)
190 cells/mL: The Number of Viable Cell ([1]; 45° C., 30% w/w, Day 3)
0 cells/mL: The Number of Viable Cell ([1]; 45° C., 30% w/w, Day 7) | The Number of Viable Cell ([1]; 45° C., 30% w/w, Day 14) | The Number of Viable Cell ([1]; 45° C., 30% w/w, Day 28) | The Number of Viable Cell ([1]; 45° C., 30% w/w, Day 56) | The Number of Viable Cell ([1]; 45° C., 40% w/w, Day 3) | The Number of Viable Cell ([1]; 45° C., 40% w/w, Day 7) | The Number of Viable Cell ([1]; 45° C., 40% w/w, Day 14) | The Number of Viable Cell ([1]; 45° C., 40% w/w, Day 28) | The Number of Viable Cell ([1]; 45° C., 40% w/w, Day 56) | The Number of Viable Cell ([1]; 45° C., 50% w/w, Day 3) | The Number of Viable Cell ([1]; 45° C., 50% w/w, Day 7) | The Number of Viable Cell ([1]; 45° C., 50% w/w, Day 14) | The Number of Viable Cell ([1]; 45° C., 50% w/w, Day 28) | The Number of Viable Cell ([1]; 45° C., 50% w/w, Day 56) | The Number of Viable Cell ([1]; 50° C., 30% w/w, Day 3) | The Number of Viable Cell ([1]; 50° C., 30% w/w, Day 7) | The Number of Viable Cell ([1]; 50° C., 30% w/w, Day 14) | The Number of Viable Cell ([1]; 50° C., 30% w/w, Day 28) | The Number of Viable Cell ([1]; 50° C., 30% w/w, Day 56) | The Number of Viable Cell ([1]; 50° C., 40% w/w, Day 3) | The Number of Viable Cell ([1]; 50° C., 40% w/w, Day 7) | The Number of Viable Cell ([1]; 50° C., 40% w/w, Day 14) | The Number of Viable Cell ([1]; 50° C., 40% w/w, Day 28) | The Number of Viable Cell ([1]; 50° C., 40% w/w, Day 56) | The Number of Viable Cell ([1]; 50° C., 50% w/w, Day 3) | The Number of Viable Cell ([1]; 50° C., 50% w/w, Day 7) | The Number of Viable Cell ([1]; 50° C., 50% w/w, Day 14) | The Number of Viable Cell ([1]; 50° C., 50% w/w, Day 28) | The Number of Viable Cell ([1]; 50° C., 50% w/w, Day 56) | The Number of Viable Cell ([2]; Day 56)
prevented from growing: growth of the microbes ([1]; temperature of 50° C. or more)
≥ 10000 cells/mL: The Number of Viable Cell ([1]; 37° C., 30% w/w, Day 0) | The Number of Viable Cell ([1]; 37° C., 30% w/w, Day 3) | The Number of Viable Cell ([1]; 37° C., 30% w/w, Day 7) | The Number of Viable Cell ([1]; 37° C., 30% w/w, Day 14) | The Number of Viable Cell ([1]; 37° C., 30% w/w, Day 28) | The Number of Viable Cell ([1]; 37° C., 30% w/w, Day 56) | The Number of Viable Cell ([1]; 37° C., 40% w/w, Day 0) | The Number of Viable Cell ([1]; 37° C., 40% w/w, Day 3) | The Number of Viable Cell ([1]; 37° C., 40% w/w, Day 7) | The Number of Viable Cell ([1]; 37° C., 40% w/w, Day 14) | The Number of Viable Cell ([1]; 37° C., 40% w/w, Day 28) | The Number of Viable Cell ([1]; 37° C., 40% w/w, Day 56) | The Number of Viable Cell ([1]; 45° C., 30% w/w, Day 0) | The Number of Viable Cell ([1]; 45° C., 40% w/w, Day 0) | The Number of Viable Cell ([1]; 45° C., 50% w/w, Day 0) | The Number of Viable Cell ([1]; 50° C., 30% w/w, Day 0) | The Number of Viable Cell ([1]; 50° C., 40% w/w, Day 0) | The Number of Viable Cell ([1]; 50° C., 50% w/w, Day 0)
